Laboratory results as given in patent publication US10392368B2, “Pyrazolo and triazolo bicyclic compounds as JAK kinase inhibitors” (THERAVANCE BIOPHARMA R&D IP, LLC, priority 2017, dated 2019).

What was measured:
[1] = Colon and plasma mouse pharmacokinetics; format: in vivo; conditions: male Balb/c mice, 10 mg/kg PO; 0.5, 2 and 6 hours
Method: 6 male Balb/c mice were administered 10 mg/kg of compound in 1% HPMC+0.1% Tween-80 by PO administration. At 0.5, 2 and 6 hours after dose administration, animals were anesthetized, and terminal blood samples were collected by cardiac puncture, followed by collection of colon contents and colon tissue.
Blood samples were collected into K2EDTA and stored on wet ice until processed to plasma by centrifugation (12000 rpm at 4° C.). Plasma samples were transferred to cluster tubes and placed on dry ice prior to freezer storage. The colon contents from each animal were collected at each terminal blood collection time point. The colon tissues were flushed with saline and patted dry. The colon and colon content tissues were homogenized using sterile water containing 0.1% formic acid 9:1 (water:tissue, v/w). The homogenized tissues and colon contents were transferred to cluster tubes and placed on dry ice prior to freezer storage. All samples were analyzed using LC/MS/MS against analytical standards.
The composite pharmacokinetic parameters of the compounds were determined by non-compartmental analysis using Phoenix WinNonlin Version 6 (Certara, St. Louis, Mo.) and using mean values from 2 animals/time point. For plasma concentrations below the quantification limit (BQL), the lowest concentration measurable or the BLOQ (below limit of quantification) was used.
A colon to plasma ratio was determined as the ratio of the colon AUC to the plasma AUC.

[2] = system: IL-2 induced pSTAT5 in thymus; test: Systemic target engagement: murine model of IL-2 induced pSTAT5 induction in thymus; format: in vivo, mouse; conditions: PO, 10, 30 and 50 mg/kg
From the text: IL-2 is an important cytokine underlying the pathophysiology of gastro-intestinal diseases such as […] bowel disease (IBD; Guan and Zhang. Mediators Inflamm, 2017; 4810258). IL-2 binds to cell surface receptors activating members of the Janus family of kinases (JAK), specifically JAK3, which then phosphorylates STAT5 and subsequently activates further transcription pathways. In this model, a dose of IL-2 was delivered systemically to mice to induce the phosphorylation of STAT5 (pSTAT5) which was then measured as the endpoint.
Adult male Balb/c mice from Harlan were used in the assay. Animals were administered test compound via oral gavage (PO, 10 or 30 mg/kg for single dose studies; 10-60 mg/kg for dose response studies) on the afternoon of the day prior to study and then in the morning on the day of study. Two hours after the second PO dose administration, mice were injected intraperitoneally (i.p.) with 100 μl of an appropriate IL-2 dose (for a total of 1-5 μg/mouse depending upon IL-2 batch; R&D Systems). 90-120 minutes after IL-2 insult, thymus samples were harvested.

splenic NK cells = test: Immunosuppression effects in mouse splenic natural killer (NK) cells; conditions: positive control, 30 mg/kg PO, BID
Method: Select compounds were assessed in the mouse splenic cell model following the same treatment paradigm used in the oxazolone-induced colitis model (assay 8).
Adult male Balb/C mice from Harlan were used for the study. The test compound and a Jak3 covalent inhibitor standard 2-propen-1-one, 1-[(2S,5R)-2-methyl-5-(7H-pyrrolo[2,3-d]pyrimidin-4-ylamino)-1-piperidinyl] (30 mg/kg, BID) as a positive control, were dosed orally for three days to naïve mice. Spleens were harvested up to 4 hours post last dose and crushed immediately for cell subtype staining. Prior to fixation, fluorophore-labelled antibodies for CD19 (FITC; B cells), CD3e (PE; pan T cells) and CD49e (APC; NK cells) were incubated with splenocyte samples from each animal to allow for simultaneous, multiple subtype % analysis on the flow cytometer. The number of total spleen cells for each animal was measured by Scepter™ 2.0 Handheld Automated Cell Counter.
The absolute number of lymphocyte subtype population (e.g., splenic B, T and NK cells) was calculated from the percentage of each subtype times the total spleen cells for each animal. A one-way ANOVA, with Fisher's LSD post hoc test, was used to compare the splenic lymphocytes number of the vehicle and test compound groups. The a level was set at p<0.05. Data were presented as the mean±SEM for each group.

## C=CC(=O)N1C[C@H](Nc2ncnc3[nH]ccc23)CC[C@@H]1C [PF-06651600, 2-propen-1-one, 1-[(2S,5R)-2-methyl-5-(7H-pyrrolo[2,3-d]pyrimidin-4-ylamino)-1-piperidinyl], reference compound]
[1]
  colon to plasma ratio (colon AUC to plasma AUC): 2.8
[2]
  inhibition of pSTAT5 induction in the thymus: significant inhibition
Splenic NK cells
  Splenic NK cell counts: significantly decreased
